How the values were obtained:
Assay in all cases: relative viability (nuclei count vs DMSO), 5 days (fraction); higher = more cells survive
Calu-6 = test system: Calu-6
How it was run: (§1)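 Dosing by pin tool came one day after lung cancer cell lines were seeded in 1536-well plates, using either one drug or a fixed anchor-drug dose plus five library-drug doses (not always all listed) in √10 steps. After 5 days, nuclei were counted on 4× images. Relative viability is treated-well nuclei count divided by vehicle-well nuclei count, and values are medians of duplicate plates.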

UMC-11 = test system: UMC-11
How it was run: as §1

EBC-1 = test system: EBC-1
How it was run: as §1

IA-LM = test system: IA-LM
How it was run: as §1

NCI-H1703 = test system: NCI-H1703
How it was run: as §1

A549 = test system: A549
How it was run: as §1

NCI-H1299 = test system: NCI-H1299
How it was run: as §1

Row | Structure (SMILES) | relative viability (Calu-6; first compound 0.03162 µM) | relative viability (Calu-6; first compound 0.3162 µM) | relative viability (UMC-11; first compound 0.01 µM) | relative viability (UMC-11; first compound 0.03162 µM) | relative viability (UMC-11; first compound 0.3162 µM) | relative viability (EBC-1; first compound 0.03162 µM) | relative viability (EBC-1; first compound 0.3162 µM) | relative viability (IA-LM; first compound 0.01 µM) | relative viability (IA-LM; first compound 0.03162 µM) | relative viability (IA-LM; first compound 0.3162 µM) | relative viability (NCI-H1703; first compound 0.01 µM) | relative viability (NCI-H1703; first compound 0.03162 µM) | relative viability (NCI-H1703; first compound 0.3162 µM) | relative viability (A549; first compound 0.01 µM) | relative viability (A549; first compound 0.03162 µM) | relative viability (A549; first compound 0.3162 µM) | relative viability (NCI-H1299; first compound 0.01 µM) | relative viability (NCI-H1299; first compound 0.03162 µM) | relative viability (NCI-H1299; first compound 0.3162 µM) | relative viability (Calu-6; first compound 0.01 µM) | relative viability (EBC-1; first compound 0.01 µM)
1 | CC(C)Oc1cc(Nc2nc(N[C@@H](C)c3ccc(F)cn3)ncc2Cl)n[nH]1 [AZ23] + CS(=O)(=O)CCNCc1ccc(-c2ccc3ncnc(Nc4ccc(OCc5cccc(F)c5)c(Cl)c4)c3c2)o1 [Lapatinib] (partner 2 µM) | 1.25 | 1.08 | 0.946 | 0.994 | 1.02 | 0.234 | 0.194 | 0.872 | 1.37 | 0.871 | 0.939 | 1.16 | 1.3 | 1.16 | 0.945 | 1.02 | 0.977 | 1.08 | 1.03 |  | 
2 | CC(C)Oc1cc(Nc2nc(N[C@@H](C)c3ccc(F)cn3)ncc2Cl)n[nH]1 [AZ23] + CS(=O)(=O)N1CCN(Cc2cc3nc(-c4cccc5[nH]ncc45)nc(N4CCOCC4)c3s2)CC1 [Pictilisib] (partner 1 µM) | 1.13 | 0.986 | 0.762 | 0.963 | 0.818 | 0.397 | 0.345 | 0.403 | 0.334 | 0.419 |  | 0.291 | 0.218 | 0.586 | 0.676 | 0.416 |  | 0.954 | 1.13 | 0.883 | 0.312
3 | CC(C)Oc1cc(Nc2nc(N[C@@H](C)c3ccc(F)cn3)ncc2Cl)n[nH]1 [AZ23] + C[C@@H](Oc1cc(-c2cnn(C3CCNCC3)c2)cnc1N)c1c(Cl)ccc(F)c1Cl [Crizotinib] (partner 1 µM) | 0.987 | 0.974 | 0.552 | 0.73 | 0.555 | 0.196 | 0.185 | 0.919 | 0.824 | 0.813 | 0.51 | 0.761 | 0.626 | 1.08 | 1.03 | 0.943 | 1.06 | 1.01 | 1.08 |  | 
4 | CC(C)Oc1cc(Nc2nc(N[C@@H](C)c3ccc(F)cn3)ncc2Cl)n[nH]1 [AZ23] + C[C@]1(O)C[C@@H](c2nc(-c3ccc4ccc(-c5ccccc5)nc4c3)c3c(N)nccn32)C1 [Linsitinib] (partner 1 µM) | 1.01 | 0.953 | 1.04 | 1.04 | 1.01 | 0.836 | 1.07 | 0.601 | 0.386 | 0.627 |  | 0.647 | 0.592 | 0.659 | 0.572 | 0.701 | 0.977 | 0.99 | 1.09 |  | 1.1
5 | CC(C)Oc1cc(Nc2nc(N[C@@H](C)c3ccc(F)cn3)ncc2Cl)n[nH]1 [AZ23] + Cc1nc(NC(=O)N2CCC[C@H]2C(N)=O)sc1-c1ccnc(C(C)(C)C(F)(F)F)c1 [Alpelisib] (partner 2 µM) | 1.12 | 1.11 | 0.883 | 1.07 | 0.943 | 0.869 | 0.859 | 0.729 | 0.98 | 0.943 |  | 0.434 | 0.308 | 0.738 | 0.758 | 0.716 | 1.16 | 1.09 | 1.23 |  | 0.826
